Measurements taken from ChEMBL document CHEMBL2390918, “Cinnamides as selective small-molecule inhibitors of a cellular model of breast cancer stem cells” (Bioorg Med Chem Lett, 2013).
Active and inactive are the calls of the source. No cut-off for these calls is given here.

Experiments:
[1] = molecular target: Prostaglandin E2 receptor EP4 subtype (Homo sapiens) (UniProt P35408); experiment: Displacement of [3H]PGE2 from human recombinant prostanoid EP4 receptor in CHEM1 cells at 10 uM after 2 hrs relative to control; assay type: cell-based
[2] = Selectivity ratio of EC50 for human CSC-like HMLE cells expressing shRNA and epithelial cadherin to EC50 for human HMLE cells expressing shRNA and GFP; assay type: ADME, cell-based; settings: read-out: Ratio EC50
[3] = Cytotoxicity against human HMLE cells expressing shRNA and GFP after 70 to 74 hrs by Cell Titer Glo assay; assay type: cell-based
[4] = Cytotoxicity against human CSC-like HMLE cells expressing shRNA and epithelial cadherin after 70 to 74 hrs by Cell Titer Glo assay; assay type: functional, cell-based
IMR-32 = experiment: Displacement of [I125]Epibatidine from nAChR in human IMR32 cells at 10 uM after 60 mins relative to control; assay type: cell-based
[5] = Selectivity ratio of EC50 for human HMLE cells expressing shRNA and GFP to EC50 for human CSC-like HMLE cells expressing shRNA and epithelial cadherin; assay type: ADME, cell-based; settings: read-out: Ratio EC50
[6] = molecular target: 5-hydroxytryptamine receptor 2B (Homo sapiens) (UniProt P41595); settings: CHO-K1, 10 uM
[7] = Displacement of [3H]GABA from GABA transporter in Wistar rat cerebral cortex after 20 mins; assay type: tissue-based
Rattus norvegicus [8] = species: Rattus norvegicus; experiment: Displacement of [3H]GABA from GABA transporter in Wistar rat cerebral cortex at 10 uM after 20 mins relative to control; assay type: tissue-based
HMLE = experiment: Cytotoxicity against human CSC-like HMLE cells expressing shRNA and epithelial cadherin at 20 uM after 70 to 74 hrs by Cell Titer Glo assay; assay type: functional, cell-based
[9] = Displacement of [3H]Glyburide from ATP-sensitive potassium channel in hamster pancreatic HIT-T15 cells after 2 hrs; assay type: cell-based, Mesocricetus auratus
HIT-T15 = experiment: Displacement of [3H]Glyburide from ATP-sensitive potassium channel in hamster pancreatic HIT-T15 cells at 10 uM after 2 hrs relative to control; assay type: cell-based; settings: Mesocricetus auratus
[10] = molecular target: T1, Glutamate NMDA receptor (Rattus norvegicus) (UniProt P35439+Q00959+Q00960+Q00961+Q62645+Q8VHN2+Q9R1M7); settings: Wistar, Cerebral cortex, 10 uM
[11] = molecular target: Neuropeptide Y receptor type 2 (Homo sapiens, UniProt P49146); experiment: Displacement of [125I]Peptide YY from neuropeptide Y receptor type 2 in human KAN-TS cells after 2 hrs; assay type: cell-based
[12] = molecular target: Neuropeptide Y receptor type 2 (Homo sapiens) (UniProt P49146); experiment: Displacement of [125I]Peptide-YY from neuropeptide Y receptor type 2 in human KAN-TS cells at 10 uM after 2 hrs relative to control; assay type: cell-based
Rattus norvegicus [13] = species: Rattus norvegicus; experiment: Displacement of [3H]Kainic acid from kainate receptor in Wistar rat brain at 10 uM after 60 mins relative to control
[14] = molecular target: T1, Glutamate NMDA receptor (Rattus norvegicus); settings: Wistar, Cerebral cortex, 10 uM; remark: listed apart in the source
[15] = Displacement of [3H]Idazoxan from central-type imidazole receptor 2 imidazoline binding site in Wistar rat cerebral cortex after 30 mins; assay type: tissue-based
Rattus norvegicus [16] = species: Rattus norvegicus; experiment: Displacement of [3H]Idazoxan from central-type imidazole receptor 2 imidazoline binding site in Wistar rat cerebral cortex at 10 uM after 30 mins relative to control; assay type: tissue-based
[17] = molecular target: Mu-type opioid receptor (Homo sapiens) (UniProt P35372); settings: CHO-K1, 10 uM
[18] = molecular target: Histamine H2 receptor (Homo sapiens) (UniProt P25021); experiment: Displacement of [125I]Aminopotentidine from human recombinant histamine H2 receptor expressed in CHOK1 cells at 10 uM after 2 hrs relative to control; assay type: cell-based; settings: CHO-K1
Substance-P receptor [19] = molecular target: T2, Substance-P receptor (Homo sapiens, UniProt P25103); experiment: Displacement of [3H]Substance P from human recombinant substance P receptor expressed in CHO cells after 90 mins; assay type: cell-based
Substance-P receptor [20] = molecular target: T2, Substance-P receptor; experiment: Displacement of [3H]Substance P from human recombinant substance P receptor expressed in CHO cells at 10 uM after 90 mins relative to control; assay type: cell-based
[21] = Displacement of [3H]Batrachotoxin from sodium channel site 2 in Wistar rat brain after 60 mins
Rattus norvegicus [22] = species: Rattus norvegicus; settings: Wistar, 10 uM
[23] = molecular target: Histamine H3 receptor (Homo sapiens) (UniProt Q9Y5N1); settings: CHO-K1, 10 uM
Chain of Histamine H3 receptor (Homo sapiens) (Q9Y5N1 whole entry): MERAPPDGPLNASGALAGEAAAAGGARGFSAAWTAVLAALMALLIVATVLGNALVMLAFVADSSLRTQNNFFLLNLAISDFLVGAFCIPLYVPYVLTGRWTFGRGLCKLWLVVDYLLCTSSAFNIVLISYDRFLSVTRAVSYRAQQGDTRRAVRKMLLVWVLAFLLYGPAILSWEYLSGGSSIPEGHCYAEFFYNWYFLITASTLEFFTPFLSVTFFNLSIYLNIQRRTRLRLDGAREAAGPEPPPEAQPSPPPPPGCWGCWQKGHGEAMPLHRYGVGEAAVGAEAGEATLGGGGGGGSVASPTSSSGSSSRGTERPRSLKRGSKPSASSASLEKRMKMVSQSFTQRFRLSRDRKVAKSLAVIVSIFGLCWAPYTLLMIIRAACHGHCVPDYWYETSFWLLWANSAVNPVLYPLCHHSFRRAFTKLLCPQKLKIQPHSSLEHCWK

T2 sequence (P25103 whole entry): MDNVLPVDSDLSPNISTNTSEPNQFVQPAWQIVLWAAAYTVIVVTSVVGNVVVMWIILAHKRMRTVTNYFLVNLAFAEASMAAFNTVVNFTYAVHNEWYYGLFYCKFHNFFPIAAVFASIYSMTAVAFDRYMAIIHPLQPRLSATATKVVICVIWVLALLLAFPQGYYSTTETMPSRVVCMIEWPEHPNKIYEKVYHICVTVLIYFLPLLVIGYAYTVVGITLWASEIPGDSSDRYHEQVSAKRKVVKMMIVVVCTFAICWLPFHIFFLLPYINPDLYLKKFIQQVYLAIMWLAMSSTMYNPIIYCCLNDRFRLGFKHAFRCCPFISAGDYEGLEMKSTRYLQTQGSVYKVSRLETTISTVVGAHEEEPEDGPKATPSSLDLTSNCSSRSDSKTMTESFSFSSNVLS
Chain of Neuropeptide Y receptor type 2 (P49146 whole entry): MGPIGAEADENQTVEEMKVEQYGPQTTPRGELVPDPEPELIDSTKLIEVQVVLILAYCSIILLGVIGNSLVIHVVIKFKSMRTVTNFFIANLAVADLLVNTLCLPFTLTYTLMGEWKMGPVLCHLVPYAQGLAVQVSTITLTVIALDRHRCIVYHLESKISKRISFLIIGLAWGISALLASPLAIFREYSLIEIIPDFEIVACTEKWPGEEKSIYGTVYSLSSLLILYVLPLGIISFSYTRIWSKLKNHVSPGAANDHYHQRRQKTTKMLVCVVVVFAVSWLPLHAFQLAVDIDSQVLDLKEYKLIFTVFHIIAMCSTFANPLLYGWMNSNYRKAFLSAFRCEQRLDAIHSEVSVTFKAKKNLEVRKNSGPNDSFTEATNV
Chain of Neuropeptide Y receptor type 2 (Homo sapiens) (P49146 whole entry): as above
Chain of 5-hydroxytryptamine receptor 2B (Homo sapiens) (P41595 whole entry): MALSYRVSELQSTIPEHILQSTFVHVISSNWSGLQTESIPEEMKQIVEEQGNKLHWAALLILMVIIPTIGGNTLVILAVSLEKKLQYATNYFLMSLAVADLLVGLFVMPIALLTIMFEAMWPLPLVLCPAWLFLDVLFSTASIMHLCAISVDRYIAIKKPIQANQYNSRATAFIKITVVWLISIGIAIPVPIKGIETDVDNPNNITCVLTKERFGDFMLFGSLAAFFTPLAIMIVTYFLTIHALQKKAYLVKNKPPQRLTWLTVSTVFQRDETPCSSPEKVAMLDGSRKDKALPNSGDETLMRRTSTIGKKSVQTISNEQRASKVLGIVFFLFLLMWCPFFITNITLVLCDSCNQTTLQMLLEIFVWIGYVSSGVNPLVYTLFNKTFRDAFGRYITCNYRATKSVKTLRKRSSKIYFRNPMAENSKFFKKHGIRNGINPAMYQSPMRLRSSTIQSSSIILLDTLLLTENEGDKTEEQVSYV
Chain of Prostaglandin E2 receptor EP4 subtype (Homo sapiens) (P35408 whole entry): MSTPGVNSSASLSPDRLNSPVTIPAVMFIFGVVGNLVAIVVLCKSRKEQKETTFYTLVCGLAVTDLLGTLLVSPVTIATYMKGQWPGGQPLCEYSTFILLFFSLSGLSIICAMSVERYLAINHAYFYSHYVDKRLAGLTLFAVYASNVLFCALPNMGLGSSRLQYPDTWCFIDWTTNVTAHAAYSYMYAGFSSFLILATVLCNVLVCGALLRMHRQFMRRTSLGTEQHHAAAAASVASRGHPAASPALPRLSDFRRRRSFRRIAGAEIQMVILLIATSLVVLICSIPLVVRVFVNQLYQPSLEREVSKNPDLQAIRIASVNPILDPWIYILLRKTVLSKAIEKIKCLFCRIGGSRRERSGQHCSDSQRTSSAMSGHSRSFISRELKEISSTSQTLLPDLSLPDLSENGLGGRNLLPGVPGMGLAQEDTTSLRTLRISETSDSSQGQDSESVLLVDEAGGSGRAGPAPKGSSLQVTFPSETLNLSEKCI
Chain of Mu-type opioid receptor (Homo sapiens) (P35372 whole entry): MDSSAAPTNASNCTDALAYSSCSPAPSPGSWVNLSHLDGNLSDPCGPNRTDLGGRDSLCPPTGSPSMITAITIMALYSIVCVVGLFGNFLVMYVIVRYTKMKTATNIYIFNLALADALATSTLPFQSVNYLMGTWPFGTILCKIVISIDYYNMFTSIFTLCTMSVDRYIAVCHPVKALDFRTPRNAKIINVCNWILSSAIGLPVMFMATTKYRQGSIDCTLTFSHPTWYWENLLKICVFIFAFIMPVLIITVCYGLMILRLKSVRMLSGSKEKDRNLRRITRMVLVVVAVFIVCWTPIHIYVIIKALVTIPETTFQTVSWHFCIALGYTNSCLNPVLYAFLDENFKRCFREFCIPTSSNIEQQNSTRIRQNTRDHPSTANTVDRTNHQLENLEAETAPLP
Chain of Histamine H2 receptor (Homo sapiens) (P25021 whole entry): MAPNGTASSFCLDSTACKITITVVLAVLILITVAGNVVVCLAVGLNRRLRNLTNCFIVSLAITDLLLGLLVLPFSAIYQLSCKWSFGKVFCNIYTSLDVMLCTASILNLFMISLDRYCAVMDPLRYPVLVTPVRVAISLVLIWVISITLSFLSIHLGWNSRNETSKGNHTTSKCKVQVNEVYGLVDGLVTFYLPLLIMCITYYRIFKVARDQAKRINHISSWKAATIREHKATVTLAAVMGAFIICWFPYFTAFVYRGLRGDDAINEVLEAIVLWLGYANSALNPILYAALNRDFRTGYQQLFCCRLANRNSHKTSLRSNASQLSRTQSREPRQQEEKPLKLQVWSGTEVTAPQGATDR

In the case of CCCCC[C@H](O)/C=C/[C@H]1[C@H](O)CC(=O)[C@@H]1C/C=C\CCCC(=O)O, the inhibition [1] is reported as 5%.
For CC(C)c1ccc(/C=C/C(=O)Nc2nncs2)cc1, the selectivity ratio [2] was 0.73, the EC50 [3] was 13600 nM and the EC50 [4] was 9970 nM.
Clc1ccc(C2CC3CCC2N3)cn1 (stereo not drawn) gave an inhibition (IMR-32) of 12%.
For O=C(/C=C/c1ccc(-c2ccccc2)cc1)NC1=NCCS1, the selectivity ratio [5] was 53.1, the EC50 [3] was 34600 nM and the EC50 [4] was 650 nM.
Work on O=C(c1ccc(F)cc1)C1CCN(CCn2c(=O)[nH]c3ccccc3c2=O)CC1 yielded an inhibition [6] of 42%.
In the case of O=C(O)C1=CCCN(CCON=C(c2ccccc2)c2ccccc2)C1, the IC50 [7] is reported as 200 nM, the Ki [7] is reported as 200 nM and the inhibition (Rattus norvegicus [8]) is reported as -6%.
For CC(C)(C)c1ccc(/C=C/C(=O)NC2=NCCS2)cc1, the EC50 [3] was 20600 nM and the Activity (HMLE) was “inactive”.
With CC(C)c1ccc(/C=C/C(=O)Nc2ncc[nH]2)cc1 the EC50 [3] was 51600 nM and the Activity (HMLE) was “inactive”.
COc1ccc(Cl)cc1C(=O)NCCc1ccc(S(=O)(=O)NC(=O)NC2CCCCC2)cc1 [GLYBURIDE] gave an IC50 [9] of 5.7 nM, a Ki [9] of 0.65 nM and an inhibition (HIT-T15) of 10%.
In the case of COc1cccc(/C=C/C(=O)NC2=NCCS2)c1, the EC50 [3] is reported as 96200 nM and the EC50 [4] is reported as 62200 nM.
With C[C@@]12NC(Cc3ccccc31)c1ccccc12 the inhibition [10] was 1%.
In the case of H-PAEDLARYYSALRHYITRRQRY-NH2, the IC50 [11] is reported as 0.21 nM, the Ki [11] is reported as 0.12 nM and the inhibition [12] is reported as 6%.
Molecule N[C@@H](CCC(=O)O)C(=O)O has an inhibition (Rattus norvegicus [13]) of 0% and an inhibition [14] of 10%.
With CC(C)Cc1ccc(/C=C/C(=O)NC2=NCCS2)cc1 the selectivity ratio [5] was 4.54, the EC50 [3] was 2170 nM and the EC50 [4] was 478 nM.
With c1ccc2c(c1)OCC(C1=NCCN1)O2 (stereo not drawn) [IDAZOXAN] the IC50 [15] was 12 nM, the Ki [15] was 8 nM and the inhibition (Rattus norvegicus [16]) was 11%.
In the case of C[C@@H](NC(=O)[C@@H](N)Cc1ccc(O)cc1)C(=O)NCC(=O)N(C)[C@@H](Cc1ccccc1)C(=O)NCCO, the inhibition [17] is reported as 4%.
With C/N=C(/NC#N)NCCSCc1csc(NC(=N)N)n1 the inhibition [18] was 11%.
Molecule Ic1ccccc1N[C@@H]1C2CCN(CC2)[C@@H]1C(c1ccccc1)c1ccccc1 has an IC50 (Substance-P receptor [19]) of 3.6 nM, a Ki (Substance-P receptor [19]) of 2.6 nM and an inhibition (Substance-P receptor [20]) of 0%.
In the case of O=C(/C=C/c1ccc(Cl)cc1)NC1=NCCS1, the selectivity ratio [5] is reported as 0.73, the EC50 [3] is reported as 9970 nM and the EC50 [4] is reported as 13600 nM.
CCCCOc1cc(C(=O)NCCN(CC)CC)c2ccccc2n1 [DIBUCAINE] gave an IC50 [21] of 610 nM, a Ki [21] of 550 nM and an inhibition (Rattus norvegicus [22]) of 10%.
C[C@@H](N)Cc1c[nH]cn1 gave an inhibition [23] of 6%.
For CC(C)c1ccc(/C=C/C(=O)Nc2nccs2)cc1, the selectivity ratio [2] was 2.05, the EC50 [3] was 3550 nM and the EC50 [4] was 7260 nM.
